The text below walks through data of PMC10272180, “Ancient medicinal plant rosemary contains a highly efficacious and isoform-selective KCNQ potassium channel opener” (Communications Biology, 2023).

Assay [1] addresses KCNQ3* (KCNQ3-A315T) (Homo sapiens, UniProt O43525, A315T). The assay can be described thus: TEVC of KCNQ3* homomers expressed in Xenopus laevis oocytes. The following applies: 100 µM. In kind it is cell-based.
Text: We generated cRNA transcripts encoding human KCNQ1, 2, 3, and 5 (wild-type and mutant) by in vitro transcription using the mMessage mMachine kit (Thermo Fisher Scientific, Waltham, MA, USA) according to manufacturer’s instructions, after vector linearization, from cDNA sub-cloned into expression vectors (pTLNx and pXOOM) incorporating Xenopus laevis β-globin 5’ and 3’ UTRs flanking the coding region to enhance translation and cRNA stability. Mutant KCNQ cDNAs were generated by Genscript (Piscataway, NJ, USA) and cRNAs made as above. We injected defolliculated stage V and VI Xenopus laevis oocytes (Xenoocyte, Dexter, MI, USA) with KCNQ cRNAs (2–10 ng) and incubated the oocytes at 16 °C in ND96 oocyte storage solution containing penicillin and streptomycin, with daily washing, for 2–4 days prior to two-electrode voltage-clamp (TEVC) recording.
We placed oocytes in a small-volume oocyte bath (Warner) and viewed them with a dissection microscope for cellular electrophysiology. We sourced chemicals from Sigma-Aldrich (St. Louis, MO, USA) and Combi-Blocks (San Diego, CA, USA). We studied effects of Salvia rosmarinus extracts and of compounds, solubilized directly in bath solution (in mM): 96 NaCl, 4 KCl, 1 MgCl2, 1 CaCl2, 10 HEPES (pH 7.6). We introduced extracts or compounds into the oocyte recording bath by gravity perfusion at a constant flow of 1 ml per minute for 3 min prior to recording. Pipettes were of 1-2 MΩ resistance when filled with 3 M KCl. […] We analyzed data using Clampfit (Molecular Devices) and Graphpad Prism software (GraphPad, San Diego, CA, USA), stating values as mean ± SEM. We plotted raw or normalized tail currents versus prepulse voltage and fitted with a single Boltzmann function:1 g=(A1−A2)/1+exp[V1/2−V/Vs]y+A2 where g is the normalized tail conductance, A1 is the initial value at -∞, A2 is the final value at +∞, V1/2 is the half-maximal voltage of activation and Vs the slope factor. We fitted activation and deactivation kinetics with single exponential functions.
Assay [2] has as its system voltage-gated calcium channel, Cav3.2. Details: method as in PMID 29073181. The settings on record: cited from earlier work.
For assay [3], the system named is KCNQ3/5. The arrangement: method as in PMID 11159685. The following applies: cited from earlier work.
Assay [4] relates to KCNQ2/3 channels. The arrangement: method as in PMID 35459955. The settings on record: cited from earlier work.

Chain of KCNQ3* (KCNQ3-A315T) (O43525 whole entry A315T): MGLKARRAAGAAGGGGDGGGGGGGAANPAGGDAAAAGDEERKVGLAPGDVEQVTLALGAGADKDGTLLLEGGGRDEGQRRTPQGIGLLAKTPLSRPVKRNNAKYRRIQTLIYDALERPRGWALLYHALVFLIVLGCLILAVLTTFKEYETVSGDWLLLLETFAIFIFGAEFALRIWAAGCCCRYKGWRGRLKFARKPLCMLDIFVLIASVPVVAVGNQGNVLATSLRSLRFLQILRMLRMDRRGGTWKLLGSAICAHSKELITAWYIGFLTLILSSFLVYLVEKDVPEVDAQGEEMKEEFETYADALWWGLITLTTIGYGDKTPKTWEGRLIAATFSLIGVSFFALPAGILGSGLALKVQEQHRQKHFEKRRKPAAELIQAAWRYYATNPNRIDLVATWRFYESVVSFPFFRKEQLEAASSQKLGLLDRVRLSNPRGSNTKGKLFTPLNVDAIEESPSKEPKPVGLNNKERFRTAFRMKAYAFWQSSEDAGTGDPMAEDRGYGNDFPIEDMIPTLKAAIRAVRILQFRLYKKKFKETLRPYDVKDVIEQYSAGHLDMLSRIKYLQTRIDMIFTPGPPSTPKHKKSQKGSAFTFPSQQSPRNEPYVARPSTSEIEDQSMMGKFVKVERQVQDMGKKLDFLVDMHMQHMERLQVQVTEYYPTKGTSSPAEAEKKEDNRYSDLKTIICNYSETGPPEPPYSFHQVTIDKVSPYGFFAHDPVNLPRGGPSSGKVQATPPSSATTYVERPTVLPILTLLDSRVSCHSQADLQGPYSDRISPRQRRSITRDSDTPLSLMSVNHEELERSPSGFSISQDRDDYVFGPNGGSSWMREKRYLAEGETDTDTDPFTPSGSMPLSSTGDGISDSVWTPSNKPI

Regarding `O=C(/C=C/c1ccc(O)c(O)c1)O[C@H](Cc1ccc(O)c(O)c1)C(=O)O` [Rosmarinic acid], in assay [1], the Slope was found to be 4.36 ± 0.60 mV, the “V0.5 Normalized tail current” value is -49.64 ± 0.84 mV and the “V0.5 non-normalized tail current” value is on record as -50.09 ± 3.47 mV. Further, the IC50 in assay [2] was 49.9 µM.
Consider `CCOC(=O)Nc1ccc(NCc2ccc(F)cc2)cc1N` [retigabine], for which the “shift in V0.5 of KCNQ3/5 activation” value in assay [3] (30 µM) is reported as −31.8 mV. In addition, in assay [3], the EC50 is 1.4 µM.
On to `Oc1cc(Cl)ccc1Oc1ccc(Cl)cc1Cl` [triclosan], for which the EC50 in assay [4] is 32 µM.

The IC50 is the midpoint of a concentration-inhibition curve. What is called EC50 is the concentration needed to bring the measured effect to its halfway point.
